According to patent publication US20260183350A1, “ANTIBIOTIC-RESISTANT BACTERIA” (priority 2022, published 2026):

Tests used:
NDM-1 Escherichia coli [1] = assay: Nutrient preference assay (nutrient mixture); format: cell-based; conditions: M9 with […] of each nutrient, up to 24 hours
Experimental: (§1) New Delhi Metallo-β-lactamase 1 (NDM-1) Escherichia coli, NDM-1 Klebsiella pneumoniae, and NDM-1 Enterobacter cloacae were isolated from patients with intestinal CRE colonisation from the Imperial College Healthcare NHS Trust via rectal swab (REC ref. 19/LO/0112). The species were assigned by matrix assisted laser desorption ionization-time of flight (MALDI-TOF) mass spectrometry and later confirmed with 16S rRNA gene sequencing. CRE status was determined using X-pert Carba-R PCR detection (Cepheid, Sunnyvale, CA, USA), (Otter, J. A. et al. Detecting carbapenemase-producing Enterobacterales (CPE): an evaluation of an enhanced CPE infection control and screening programme in acute care. J Antimicrob Chemother 75, 2670-2676 (2020)).
(§2) CRE isolates were passaged once from frozen glycerol stocks on R2A plates. Cells were suspended in M9 minimal media to a turbidity of 42% using a Turbidimeter (Biolog Inc.), then diluted 1 in 6 to inoculate the nutrient preference assays. M9 minimal media was supplemented with 0.015% of each of the following: L-arabinose, D-fructose, L-fucose, D-galactose, D-glucose, D-mannose, D-ribose, D-xylose, N-acetylglucosamine, D-maltose, sucrose, D-trehalose, L-alanine, L-arginine, L-aspartate, L-glutamate, L-glycine, L-isoleucine, L-leucine, L-lysine, L-methionine, L-phenylalanine, L-proline, L-threonine, L-tryptophan, L-tyrosine, L-valine, uracil, and succinate. Cultures were incubated anaerobically and aerobically in a plate reader and OD600 readings were collected every 15 minutes for 24 hours. Cultures were also incubated anaerobically and aerobically for 24 h and samples were collected at 0, 4, 8, and 24 hours post-inoculation for 1H-NMR spectroscopy. Changes in nutrients and metabolites by CRE isolates was compared to the sterile media control over time using a two-way mixed ANOVA followed by pairwise comparisons with Bonferroni correction. […]

[2] = test system: NDM-1 Enterobacter cloacae; assay: Nutrient preference assay (nutrient mixture); format: cell-based; conditions: M9 with […] of each nutrient, up to 24 hours
Experimental: as §1, §2

[3] = test system: NDM-1 Klebsiella pneumoniae; assay: Nutrient preference assay (nutrient mixture); format: cell-based; conditions: M9 with […] of each nutrient, up to 24 hours
Experimental: as §1, §2

NDM-1 Escherichia coli [4] = assay: Carbon utilisation assay; format: cell-based; conditions: M9 minimal medium, 0.5% (w/v) carbon source
Experimental: as §1
(§3) Growth of CRE isolates on sole carbon or nitrogen sources was tested by inoculating each CRE isolate into a minimal medium supplemented with the nutrient of interest. First, CRE isolates were passaged from frozen glycerol stocks on Reasoner's 2A agar (R2A) plates. Cells were then suspended in M9 minimal media to a turbidity of 42% using a Turbidimeter (Biolog Inc.), then diluted a further 1 in 6 to inoculate the carbon or nitrogen utilisation assays. M9 minimal media contained the following (at final concentrations): 22 mM KH2PO4, 42 mM Na2HPO4, 9 mM NaCl, 0.49 mM MgSO4·7H2O, 0.09 mM CaCl2), 0.011 mM FeSO4·7H2O. For the carbon assays the M9 minimal medium was also supplemented with 0.1% (w/v) NH4Cl (as the nitrogen source) and the carbon sources were individually tested at 0.5% (w/v) concentration. For the nitrogen assays the M9 minimal medium was also supplemented with 0.5% (w/v) glucose (as the carbon source) and the nitrogen sources were individually tested at 0.1% (w/v) concentration. Cultures were incubated anaerobically and aerobically in a plate reader and OD600 readings were collected every 15 minutes for 24 hours.
(§4) Growth curves were analysed in Python (v3.6.5) using the AMiGA software (Midani, F. S., Collins, J. & Britton, R. A. AMiGA: Software for Automated Analysis of Microbial Growth Assays. mSystems 6, e0050821 (2021)). Growth of each isolate was measured with 6 wells from 2-3 independent experiments. Growth curves were normalised to the no substrate control using the subtraction method. AMiGA performed Gaussian Process regression to test differential growth between the substrate and the no substrate control. The functional difference in the OD (and its credible interval) was also computed between the substrate and the no substrate control.

[5] = test system: NDM-1 Enterobacter cloacae; assay: Carbon utilisation assay; format: cell-based; conditions: M9 minimal medium, 0.5% (w/v) carbon source
Experimental: as §1, §3, §4

[6] = test system: NDM-1 Klebsiella pneumoniae; assay: Carbon utilisation assay; format: cell-based; conditions: M9 minimal medium, 0.5% (w/v) carbon source
Experimental: as §1, §3, §4

NDM-1 Escherichia coli [7] = assay: Nitrogen utilisation assay; format: cell-based; conditions: aerobic; M9 minimal medium with glucose, 0.1% (w/v) nitrogen source
Experimental: as §1, §3, §4

[8] = test system: NDM-1 Enterobacter cloacae; assay: Nitrogen utilisation assay; format: cell-based; conditions: aerobic; M9 minimal medium with glucose, 0.1% (w/v) nitrogen source
Experimental: as §1, §3, §4

[9] = test system: NDM-1 Klebsiella pneumoniae; assay: Nitrogen utilisation assay; format: cell-based; conditions: aerobic; M9 minimal medium with glucose, 0.1% (w/v) nitrogen source
Experimental: as §1, §3, §4

[10] = test system: vancomycin-resistant E. faecium; assay: VRE nutrient utilization protocol: carbon sources; format: cell-based, Enterococcus faecium; conditions: aerobic; VRE minimal medium
Experimental: (§5) VRE minimal media consists of potassium phosphate monobasic (4 g/L), potassium phosphate dibasic (14 g/L), sodium citrate (1 g/L), magnesium sulphate (0.2 g/L), ammonium sulphate (2 g/L), adenosine (0.04 g/L), thymine (0.04 g/L), Kao and Michayluk vitamin solution [Sigma, K3129, 50× Stock](5×), glucose (1 g/L) and amino acid solution [Sigma, R7131, RPMI-1640, 50×](25×). If the study was performed under anaerobic conditions, fumarate (5.2 g/L) was added to increase growth of VRE strains. Carbon-free minimal media was prepared by leaving out glucose while nitrogen-free minimal media was prepared without the amino acid solution. Media was filter sterilized with a 0.22 micron filter and used immediately aerobically or degassed overnight if used anaerobically.
(§6) VRE strains were grown on R2A overnight before the cells were suspended in 0.9% saline to an OD of 0.38 (λ=595 nm). A 10% dilution of the cell suspension was prepared using VRE minimal media to achieve a final well OD of […] (λ=595 nm) greater than the sterile media OD. Both carbon and nitrogen source utilization were evaluated by adding the inoculated media and a filter-sterilised nutrient source solution into a well in a 1:1 ration to a final volume of 100 μL in aerobic tests and 200 μL in anaerobic tests. Carbon sources were tested individually and compared to a carbon-free control. To test nitrogen source utilization, a nitrogen source solution was prepared containing L-alanine (2 g/L), L-arginine (2.5 g/L, L-asparagine (0.71 g/L), L-aspartate (0.25 g/L), L-cysteine (0.625 g/L), L-glutamate (0.25 g/L), L-Glycine (0.125 g/L), L-histidine (0.1875 g/L), L-isoleucine (0.625 g/L), L-leucine (0.625 g/L), L-lysine HCl (0.5 g/L), L-methionine (0.1875 g/L), L-phenylalanine (0.1875 g/L), L-proline (0.25 g/L), L-serine (0.375 g/L), L-threonine (0.25 g/L), L-tryptophan (0.0625 g/L), L-tyrosine (0.29 g/L), L-valine (0.25 g/L), N-acetylglucosamine (2 g/L), and uracil (2.5 g/L). To test the strains' ability to utilize individual nitrogen sources, separate solutions were prepared eliminating one nitrogen source each. The change in growth compared to the complete nitrogen source solution control was used to determine nitrogen utilization. All carbon and nitrogen sources were tested in a technical triplicate for each biological replicate. Aerobic plates were incubated with a plate seal while anaerobic plates were not. The aerobic plate reader was set to read the plate (λ=595 nm, 37° C., 22 flashes per well, orbital shaking of 100 rpm for 15 s prior to each read) every 15 minutes for 24 hours. The anaerobic plate reader read the plate (λ=595 nm, 37° C., stationary) every 15 minutes for 24 hours.

[11] = test system: vancomycin-resistant E. faecalis; assay: VRE nutrient utilization protocol: nitrogen sources, leave-one-out; format: cell-based, Enterococcus faecalis; conditions: aerobic; leave-one-out from nitrogen source mixture in minimal medium
Experimental: as §5, §6

[12] = test system: vancomycin-resistant E. faecium; assay: as above; format: cell-based, Enterococcus faecium; conditions: aerobic; leave-one-out from nitrogen source mixture in minimal medium
Experimental: as §5, §6

Structure (SMILES) | Utilisation of nutrient by E. coli from nutrient mixture (1H-NMR) (NDM-1 Escherichia coli [1]; anaerobic) | Utilisation of nutrient by E. cloacae from nutrient mixture (1H-NMR) ([2]; anaerobic) | Utilisation of nutrient by K. pneumoniae from nutrient mixture (1H-NMR) ([3]; anaerobic) | Use as sole carbon source to support E. coli growth (NDM-1 Escherichia coli [4]; aerobic) | Use as sole carbon source to support E. cloacae growth ([5]; aerobic) | Use as sole carbon source to support K. pneumoniae growth ([6]; aerobic) | Use as sole nitrogen source to support E. coli growth (NDM-1 Escherichia coli [7]) | Use as sole nitrogen source to support E. cloacae growth [8] | Use as sole nitrogen source to support K. pneumoniae growth [9] | Use as sole carbon source to support E. faecium growth [10] | Use as sole carbon source to support E. coli growth (NDM-1 Escherichia coli [4]; anaerobic) | Use as sole carbon source to support E. cloacae growth ([5]; anaerobic) | Use as sole carbon source to support K. pneumoniae growth ([6]; anaerobic) | Utilisation of nutrient by E. coli from nutrient mixture (1H-NMR) (NDM-1 Escherichia coli [1]; aerobic) | Utilisation of nutrient by E. cloacae from nutrient mixture (1H-NMR) ([2]; aerobic) | Utilisation of nutrient by K. pneumoniae from nutrient mixture (1H-NMR) ([3]; aerobic) | Use as nitrogen source to support E. faecalis growth [11] | Use as nitrogen source to support E. faecium growth [12]
C[C@H](N)C(=O)O [alanine, L-alanine] | not utilised | not utilised | not utilised | able to grow | able to grow | able to grow | able to grow | able to grow | able to grow |  |  |  |  |  |  |  |  | 
O=C[C@H](O)[C@@H](O)[C@@H](O)CO [arabinose, L-arabinose] |  |  |  |  |  |  |  |  |  | could use | could use | could use | could use |  |  |  |  | 
N[C@@H](CCC(=O)O)C(=O)O [glutamate, L-glutamate] |  |  |  |  | able to grow | able to grow | able to grow | able to grow | able to grow |  |  |  |  | moderate utilisation | moderate utilisation | moderate utilisation | could use | could use
NCCCC[C@H](N)C(=O)O [lysine, L-lysine] | high utilisation | produced low levels | high utilisation |  |  |  | able to grow | able to grow | able to grow |  |  |  |  | moderate utilisation | produced low levels | high utilisation | could use | could use
N[C@@H](Cc1c[nH]c2ccccc12)C(=O)O [tryptophan, L-tryptophan] | moderate utilisation | not utilised | not utilised |  |  |  | able to grow |  |  | could use |  |  |  | high utilisation | not utilised | not utilised | could use | could use
O=C[C@H](O)[C@@H](O)[C@H](O)CO [xylose, D-xylose] |  |  |  |  |  |  |  |  |  |  | could use | could use | could use |  |  |  |  | 
